For the experiment, the target named is T1, HIV-1 RT (Human immunodeficiency virus type 1 group M subtype B, UniProt P03366).
T1 construct: HIV-1 RT assay was carried out in 96-well Millipore MultiScreen MADVNOB50 plates using purified recombinant enzyme
Description: HIV Reverse Transcriptase Assay: Inhibitor IC50 Determination. Conditions: purified recombinant enzyme, poly(rA)/oligo(dT)16 template-primer, 4 nM HIV-1 RT, 37° C. for 30 min, 10% DMSO; read-out: RT inhibition IC50. The class given is biochemical. The procedure: HIV Reverse Transcriptase Assay: Inhibitor IC50 Determination
HIV-1 RT assay was carried out in 96-well Millipore MultiScreen MADVNOB50 plates using purified recombinant enzyme and a poly(rA)/oligo(dT)16 template-primer in a total volume of 50 μL. The assay constituents were 50 mM Tris/HCl 50 mM NaCl, 1 mM EDTA, 6 mM MgCl2, 5 μM dTTP, 0.15 μCi [^3H] dTTP, 5 μg/ml poly (rA) pre annealed to 2.5 μg/ml oligo (dT)16 and a range of inhibitor concentrations in a final concentration of 10% DMSO. Reactions were initiated by adding 4 nM HIV-1 RT and after incubation at 37° C. for 30 min, they were stopped by the addition of 50 μl ice cold 20% TCA and allowed to precipitate at 4° C. for 30 min. The precipitates were collected by applying vacuum to the plate and sequentially washing with 3×200 μl of 10% TCA and 2×200 μl 70% ethanol. Finally, the plates were dried and radioactivity counted in a Packard TopCounter after the addition of 25 μl scintillation fluid per well. IC50's, were calculated by plotting % inhibition versus log10 inhibitor concentrations.

The IC50 is the concentration needed to halve the response being measured.

The structures appear in SMILES notation.

For the compound `O=c1ccc(Cc2ccc(Cl)c(Oc3cc(Cl)ccc3Br)c2)n[nH]1` [I-77, 6-[3-(2-Bromo-5-chloro-phenoxy)-4-chloro-benzyl]-2H-pyridazin-3-one], the IC50 is 24.2 nM.

As for `CCc1ccc(Cc2cc(C)c(=O)[nH]n2)cc1Oc1cc(Cl)cc(C#N)c1` [I-98, 3-Chloro-5-[2-ethyl-5-(5-methyl-6-oxo-1,6-dihydro-pyridazin-3-ylmethyl)-phenoxy]-benzonitrile], the IC50 was 19.4 nM.

Consider `CCc1ccc(Cc2ccc(=O)[nH]n2)cc1Oc1cc(C)cc(C#N)c1` [I-100, 3-[2-Ethyl-5-(6-oxo-1,6-dihydro-ridazin-3-ylmethyl)-phenoxy]-5-methyl-nzonitrile], for which the IC50 was determined as 24.1 nM.

As to `O=c1ccc(Cc2ccc(Cl)c(Oc3cc(Cl)ccc3Cl)c2)n[nH]1` [I-102, 6-[4-Chloro-3-(2,5-dichloro-phenoxy)-benzyl]-2H-pyridazin-3-one], the IC50 is 20.6 nM.

Turning to `Cc1cc(Cc2ccc(Cl)c(Oc3cc(Cl)ccc3Br)c2)n[nH]c1=O` [I-103, 6-[3-(2-Bromo-5-chloro-phenoxy)-4-chloro-benzyl]-4-methyl-2H-pyridazin-3-one], the IC50 was determined as 9.35 nM.

As for `Cc1cc(Cc2ccc(Cl)c(Oc3cc(Cl)cc(C#N)c3)c2)n[nH]c1=O` [I-108, 3-Chloro-5-[2-chloro-5-(5-methyl-6-oxo-1,6-dihydro-pyridazin-3-ylmethyl)-phenoxy]-benzonitrile], the concentration for half-maximal inhibition (IC50) came to 11.1 nM.

For `CCc1ccc(Cc2cc(C)c(=O)[nH]n2)cc1Oc1cc(C)cc(C#N)c1` [I-109, 3-[2-Ethyl-5-(5-methyl-6-oxo-1,6-dihydro-yridazin-3-ylmethyl)-phenoxy]-5-methyl-benzonitrile], the IC50 amounted to 21.6 nM.

As to `Cc1ccc(Cl)cc1Oc1cc(Cc2cc(C)c(=O)[nH]n2)ccc1Cl` [I-123, 6-[4-Chloro-3-(5-chloro-2-methyl-phenoxy)-benzyl]-4-methyl-2H-pyridazin-3-one], the IC50 is 23.1 nM.

Regarding `Cc1cc(Cc2ccc(Cl)c(Oc3cc(C#N)cc(C#N)c3)c2)n[nH]c1=O` [I-135, 5-[2-Chloro-5-(5-methyl-6-oxo-1,6-dihydro-pyridazin-3-ylmethyl)-phenoxy]-isophthalonitrile], the 50% inhibitory concentration (IC50) is 12.5 nM.

On to `O=c1ccc(Cc2ccc(Cl)c(Oc3cc(Cl)ccc3Br)c2F)n[nH]1` [I-136, 6-[3-(2-Bromo-5-chloro-phenoxy)-4-chloro-2-fluoro-benzyl]-2H-pyridazin-3-one], for which the 50% inhibitory concentration (IC50) is 8 nM.

With `O=c1ccc(Cc2cc(Oc3cc(Br)cc(Br)c3)c3occc3c2)n[nH]1` [I-142, 6-[7-(3,5-Dibromo-phenoxy)-benzofuran-5-ylmethyl]-2H-pyridazin-3-one], the IC50 amounted to 15 nM.

In the case of `CCc1ccc(Cc2ccc(=O)[nH]n2)c(F)c1Oc1cc(Cl)cc(C#N)c1` [I-224, 3-Chloro-5-[6-ethyl-2-fluoro-3-(6-oxo-1,6-dihydro-pyridazin-3-ylmethyl)-phenoxy]-benzonitrile], the half-inhibitory concentration (IC50) is 18 nM.

For the compound `Cc1cc(Cc2ccc(Cl)c(Oc3cc(C#N)cc(C(F)F)c3)c2F)n[nH]c1=O` [I-237, 3-[6-Chloro-2-fluoro-3-(5-methyl-6-oxo-1,6-dihydro-pyridazin-3-ylmethyl)-phenoxy]-5-difluoromethyl-benzonitrile], the IC50 came out at 12.8 nM.

The record behind these values is patent US7189718B2, “Non-nucleoside reverse transcriptase inhibitors” (Roche Palo Alto LLC, priority 2003, dated 2007).
